Experiment [1] deals with T1, Neuropeptide FF receptor 2 (Homo sapiens, UniProt Q9Y5X5). The experiment in a line: Ratio of RF2 Ki to compound Ki for human flag-tagged NPFF2 receptor.
Experiment [2] has as its target T1, Neuropeptide FF receptor 2. The experiment in a line: Displacement of [3H]FFRF-NH2 from human flag-tagged NPFF2 receptor expressed in CHO cells at 500 nM by scintillation counting. It is filed as cell-based.
In experiment [3] the target is T1, Neuropeptide FF receptor 2. Briefly: Displacement of [3H]FFRF-NH2 from human flag-tagged NPFF2 receptor expressed in CHO cells by scintillation counting. It is filed as cell-based. (In general: Displacement assays read how much labelled ligand stays bound in the presence of the test substance.)
The target of experiment [4] is T2, Neuropeptide FF receptor 1 (Homo sapiens, UniProt Q9GZQ6). The experiment in a line: Displacement of [3H]FFRF-NH2 from human flag-tagged NPFF1 receptor expressed in CHO cells at 500 nM by scintillation counting. It is filed as cell-based.
T2 sequence (Q9GZQ6 whole entry): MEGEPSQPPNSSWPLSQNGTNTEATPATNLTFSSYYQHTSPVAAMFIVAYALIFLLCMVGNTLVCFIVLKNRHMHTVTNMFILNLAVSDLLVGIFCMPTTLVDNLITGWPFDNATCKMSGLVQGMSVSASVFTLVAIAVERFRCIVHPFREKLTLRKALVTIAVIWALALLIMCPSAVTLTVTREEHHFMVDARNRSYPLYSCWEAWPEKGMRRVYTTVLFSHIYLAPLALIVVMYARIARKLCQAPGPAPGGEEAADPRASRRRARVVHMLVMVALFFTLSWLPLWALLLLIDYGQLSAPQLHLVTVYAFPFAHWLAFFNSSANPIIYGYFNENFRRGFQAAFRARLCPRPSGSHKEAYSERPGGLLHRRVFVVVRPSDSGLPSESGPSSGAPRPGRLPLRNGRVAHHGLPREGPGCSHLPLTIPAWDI
Experiment [5] has as its target T2, Neuropeptide FF receptor 1. Briefly: Displacement of [3H]FFRF-NH2 from human flag-tagged NPFF1 receptor expressed in CHO cells at 5 uM by scintillation counting. It is filed as cell-based.
In experiment [6] the target is T1, Neuropeptide FF receptor 2. Briefly: Displacement of [3H]FFRF-NH2 from human flag-tagged NPFF2 receptor expressed in CHO cells at 5 uM by scintillation counting. It is filed as cell-based.
Experiment [7] has as its target T2, Neuropeptide FF receptor 1. The experiment in a line: Displacement of [3H]FFRF-NH2 from human flag-tagged NPFF1 receptor expressed in CHO cells by scintillation counting. It is filed as cell-based.

The structures appear in SMILES notation. pKi: −log10 of the molar value.

T1 sequence (Q9Y5X5 whole entry): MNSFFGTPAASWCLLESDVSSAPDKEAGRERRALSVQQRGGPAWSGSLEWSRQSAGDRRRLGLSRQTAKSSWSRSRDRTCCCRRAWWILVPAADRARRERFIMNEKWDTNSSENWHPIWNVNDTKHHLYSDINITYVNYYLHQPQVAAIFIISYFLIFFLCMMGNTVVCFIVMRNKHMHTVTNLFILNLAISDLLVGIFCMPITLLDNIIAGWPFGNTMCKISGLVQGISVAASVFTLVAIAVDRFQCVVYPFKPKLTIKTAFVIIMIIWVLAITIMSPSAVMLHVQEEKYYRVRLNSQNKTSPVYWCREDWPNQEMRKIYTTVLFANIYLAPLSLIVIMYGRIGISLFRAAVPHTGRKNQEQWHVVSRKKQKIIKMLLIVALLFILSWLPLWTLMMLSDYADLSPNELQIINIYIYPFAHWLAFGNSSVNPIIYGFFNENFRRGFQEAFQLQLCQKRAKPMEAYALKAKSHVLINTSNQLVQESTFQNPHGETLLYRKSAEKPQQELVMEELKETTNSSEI

One may read the inhibition as the drop in the measured response relative to a control, in per cent. Read a high inhibition as a strong effect. In general, pKi refers to −log10 of the Ki, conventionally taken in molar units. High values mean a low Ki, low ones a high Ki. On to `N=C(N)NCCC[C@@H](NC(=O)c1ccccc1)C(=O)N[C@@H](Cc1ccccc1)C(N)=O`, for which the Ratio Ki in experiment [1] turned out to be 5. Besides, the inhibition in experiment [2] was found to be 55%; in experiment [4], 80%; in experiment [5] it was 90%; in experiment [6], 92%. The pKi in experiment [3] is 7.66; in experiment [7], 7.96.

Take `N=C(N)NCCC[C@@H](NC(=O)C(c1ccccc1)c1ccccc1)C(=O)N[C@@H](Cc1ccccc1)C(N)=O`: the inhibition in experiment [2] was 84%; in experiment [4] it was 75%; in experiment [5] it was 82%; in experiment [6], 100%. Besides, the pKi is 8.40 in experiment [3] and 8.00 in experiment [7].

Regarding `N=C(N)NCCC[C@@H](NC(=O)C(c1ccccc1)c1ccccc1)C(=O)N[C@H](Cc1ccccc1)C(N)=O`, the inhibition in experiment [2] was 18%; in experiment [4], 74%; in experiment [5] it was 86%; in experiment [6] it was 46%. Besides, the pKi in experiment [3] is 6.64; in experiment [7] it was 7.82.

Consider `N=C(N)NCCC[C@@H](NC(=O)c1ccccc1-c1ccccc1)C(=O)N[C@@H](Cc1ccccc1)C(N)=O`, for which the inhibition in experiment [2] stood at 65%; in experiment [4], 89%; in experiment [5], 97%; in experiment [6], 90%. Moreover, the pKi is 8.40 in experiment [3] and 8.70 in experiment [7].

For the compound `N=C(N)NCCC[C@H](NC(=O)c1ccc2cc[nH]c2c1)C(=O)N[C@@H](Cc1ccccc1)C(N)=O`, the inhibition was 38% in experiment [2], 41% in experiment [4], 89% in experiment [5] and 70% in experiment [6]. Besides, the values for the pKi in experiment [3] and in experiment [7] were 6.87 and 6.42, respectively.

As to `N=C(N)NCCC[C@@H](NC(=O)/C=C/c1ccccc1)C(=O)N[C@@H](Cc1ccccc1)C(N)=O`, the inhibition stood at 18% in experiment [2], 84% in experiment [4], 95% in experiment [5] and 58% in experiment [6]. Besides, the values for the pKi in experiment [3] and in experiment [7] were 6.93 and 9.10, respectively.

As for `N=C(N)NCCC[C@H](NC(=O)c1ccccc1)C(=O)N[C@@H](Cc1ccccc1)C(N)=O`, the inhibition was determined as 32% in experiment [2], 66% in experiment [4], 99% in experiment [5] and 92% in experiment [6]. Moreover, the figures for the pKi in experiment [3] and in experiment [7] were 7.04 and 7.64, respectively.

Regarding `N=C(N)NCCC[C@@H](NC(=O)C12CC3CC(CC(C3)C1)C2)C(=O)N[C@@H](Cc1ccccc1)C(N)=O`, the inhibition in experiment [2] amounted to 21%; in experiment [4], 85%; in experiment [5] it was 100%; in experiment [6] it was 60%. Also, the negative-log Ki (pKi) in experiment [3] is 6.85; in experiment [7] it was 7.54.

In the case of `N=C(N)NCCC[C@@H](NC(=O)/C=C/c1ccccc1)C(=O)N[C@H](Cc1ccccc1)C(N)=O`, the inhibition came out at 0% in experiment [2], 55% in experiment [4], 82% in experiment [5] and 14% in experiment [6]. The pKi is 5.79 in experiment [3] and 7.08 in experiment [7].

The values above are taken from ChEMBL document CHEMBL2203185, “Development of sub-nanomolar dipeptidic ligands of neuropeptide FF receptors” (Bioorg Med Chem Lett, 2012).
